Where two headings read alike, the source gives them in different places.
Legend:
[1] = test system: Phosphorylation of ERK1/2 in A549 cells; assay: Phospho-ERK1/2 MSD Assay, A549 (Table 15 conditions: 4 hours compound treatment); type: cell-based; conditions: Homo sapiens, A549, 4 h, EGF stimulation, read-out: p-ERK IC50 (A549)
Method: (§1) For compounds in Table 15, the following assay conditions were employed:
Phospho-ERK1/2 MSD Assay: MIA PaCa-2 (ATCC® CRL-1420™) and A549 (ATCC® CCL-185™) cells were cultured in RPMI 1640 Medium (ThermoFisher Scientific 11875093) containing 10% fetal bovine serum (ThermoFisher Scientific 16000044) and 1× penicillin-streptomycin-glutamine (ThermoFisher Scientific 10378016). Sixteen hours prior to compound treatment, MIA PaCa-2 or A549 cells were seeded in 96-well cell culture plates at a density of 25,000 cells/well and incubated at 37° C., 5% CO2. A compound dose-response titration was diluted in growth media, added to appropriate wells of a cell culture plate, and then incubated at 37° C., 5% CO2 for 4 hours. Following compound treatment, cells were stimulated with 10 ng/mL EGF (Roche 11376454001) for 10 min, washed with ice-cold Dulbecco's phosphate-buffered saline, no Ca^2+ or Mg^2+ (ThermoFisher Scientific 14190144), and then lysed in RIP A buffer (50 mM Tris-HCl pH 7.5, 1% Igepal, 0.5% sodium deoxycholate, 150 mM NaCl, and 0.5% sodium dodecyl sulfate) containing protease inhibitors (Roche 4693132001) and phosphatase inhibitors (Roche 4906837001). Cell lysates were stored frozen at −80° C. overnight. Phosphorylation of ERK1/2 in compound-treated lysates was assayed using Phospho-ERK1/2 Whole Cell Lysate kits (Meso Scale Discovery K151DWD) according to the manufacturer's protocol. Assay plates were read on a Meso Scale Discovery Sector Imager 6000, and data were analyzed using a 4-parameter logistic model to calculate IC50 values.

[2] = molecular target: T1, GDP-bound KRAS protein (aa 1-169), containing both G12C and C118A amino acid substitutions (Homo sapiens, UniProt P01116, C118A/G12C); assay: Coupled Nucleotide Exchange Assay (Table 15 conditions: 2 hours pre-incubation); type: biochemical; conditions: 2 hours compound pre-incubation (Table 15 conditions)
T1 sequence (P01116 1-169 isoform P01116-2 G12C/C118A): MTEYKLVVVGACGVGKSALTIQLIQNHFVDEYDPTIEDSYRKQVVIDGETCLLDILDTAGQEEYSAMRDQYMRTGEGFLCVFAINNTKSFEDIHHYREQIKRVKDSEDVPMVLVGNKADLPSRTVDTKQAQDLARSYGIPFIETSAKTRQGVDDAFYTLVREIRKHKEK
Method: as §1
Following compound pre-incubation, purified SOS protein (aa 564-1049) and GTP (Roche 10106399001) were added to the assay wells and incubated for an additional hour. […] The assay plates were then read on a PerkinElmer EnVision Multilabel Reader, using AlphaScreen® technology, and data were analyzed using a 4-parameter logistic model to calculate IC50 values.

[3] = test system: Phosphorylation of ERK1/2 in MIA PaCa-2 cells; assay: Phospho-ERK1/2 MSD Assay, MIA PaCa-2 (Table 16 conditions: 2 hours compound treatment); type: cell-based; conditions: 10 ng/mL EGF for 10 min, read-out: p-ERK IC50 (MIA PaCa-2)
Method: (§2) For compounds in Table 16, the following assay conditions were employed:
Sixteen hours prior to compound treatment, MIA PaCa-2 or A549 cells were seeded in 96-well cell culture plates at a density of 25,000 cells/well and incubated at 37° C., 5% CO2. A compound dose-response titration was diluted in growth media, added to appropriate wells of a cell culture plate, and then incubated at 37° C., 5% CO2 for 2 hours. […] Phosphorylation of ERK1/2 in compound-treated lysates was assayed using Phospho-ERK1/2 Whole Cell Lysate kits (Meso Scale Discovery K151DWD) according to the manufacturer's protocol. Assay plates were read on a Meso Scale Discovery Sector Imager 6000, and data were analyzed using a 4-parameter logistic model to calculate IC50 values.

[4] = molecular target: T1, GDP-bound KRAS protein (aa 1-169), containing both G12C and C118A amino acid substitutions; assay: Coupled Nucleotide Exchange Assay (Table 16 conditions: 5 min pre-incubation); type: biochemical; conditions: 5 min compound pre-incubation; SOS-mediated nucleotide exchange, AlphaScreen
Method: as §2
The assay plates were then read on a PerkinElmer EnVision Multilabel Reader, using AlphaScreen® technology, and data were analyzed using a 4-parameter logistic model to calculate IC50 values.

[5] = Homo sapiens, MIA PaCa-2, MIA PaCa-2 cells

Row | Structure (SMILES) | Coupled exchange IC50 [2] [nM] | IC50 [4] [nM] | IC50 ([3]; MIA PaCa-2 cells) [nM] | also measured
1 | C=CC(=O)N1CCN(c2snc3c(F)c(-c4cc(O)cc5ccccc45)c(Cl)cc23)CC1CO (racemic) [Example 1-16, 1-(4-(5-chloro-7-fluoro-6-(3-hydroxy-1-naphthalenyl)-2,1-benzothiazol-3-yl)-2-(hydroxymethyl)-1-piperazinyl)-2-propen-1-one] | 492 |  |  | IC50 [1]: > 100000 nM
2 | C=CC(=O)N1CCN(c2nc(=O)n(-c3ccccc3C(C)C)c3cc(-c4c(O)cccc4F)c(Cl)cc23)[C@@H](C)C1 (single isomer, unassigned) [Example 8-3-2] | 340 |  |  | 
3 | C=CC(=O)N1CCN(c2snc3c(F)c(-c4cc(O)cc5ccccc45)c(Cl)cc23)[C@@H](C)C1 [Example 1-19-1, 1-((3S)-4-(5-chloro-7-fluoro-6-(3-hydroxy-1-naphthalenyl)-2,1-benzothiazol-3-yl)-3-methyl-1-piperazinyl)-2-propen-1-one] | 115 |  |  | 
4 | C=CC(=O)N1CCN(c2nc(=O)n(-c3ccccc3C(C)C)c3cc(-c4c(O)cccc4F)c(Cl)cc23)[C@@H](C)C1 [Example 8-3-1, 6-chloro-7-(2-fluoro-6-hydroxy-phenyl)-4-((2S)-2-methyl-4-(2-propenoyl)-1-piperazinyl)-1-(2-(2-propanyl)-phenyl)-2(1H)-quinazolinone] | 282 |  |  | 
5 | C=CC(=O)N1CCN(c2nnc(-c3ccccc3C(C)C)c3cc(-c4c(O)cccc4F)c(C)nc23)CC1 [Example 27, 1-(4-(3-(2-Fluoro-6-hydroxyphenyl)-2-methyl-5-(2-(2-propanyl)phenyl)pyrido[2,3-d]pyridazin-8-yl)-1-piperazinyl)-2-propen-1-one] | 1280 |  |  | 
6 | C=CC(=O)N1CCN(c2nc(=O)n(-c3c(C(C)C)ncnc3C(C)C)c3nc(-c4ccccc4F)c(Cl)cc23)[C@@H](C)C1 [Example 43, 6-Chloro-1-(4,6-di(2-propanyl)-5-pyrimidinyl)-7-(2-fluorophenyl)-4-((2S)-2-methyl-4-(2-propenoyl)-1-piperazinyl)pyrido[2,3-d]pyrimidin-2(1H)-one] |  | 38 |  | IC50 [3, 5]: 34 nM
7 | C=CC(=O)N1CCN(c2nc(=O)n(-c3c(C)ccnc3C3CC3)c3nc(-c4c(O)cccc4F)c(Cl)cc23)[C@@H](C)C1 [Example 44] |  | 103 | 65 | 
8 | C=CC(=O)N1CCN(c2nc(=O)n(-c3c(C)ccnc3C3CC3)c3nc(-c4ccccc4F)c(Cl)cc23)[C@@H](C)C1 [Example 45, 6-Chloro-1-(2-cyclopropyl-4-methyl-3-pyridinyl)-7-(2-fluorophenyl)-4-((2A)-2-methyl-4-(2-propenoyl)-1-piperazinyl)pyrido[2,3-d]pyrimidin-2(1H)-one] |  | 319 | 62 | 
9 | C=CC(=O)N1CCN(c2nc(=O)n(-c3c(C)ccnc3CC)c3nc(-c4ccccc4F)c(Cl)cc23)[C@@H](C)C1 [Example 46, 6-Chloro-1-(2-ethyl-4-methyl-3-pyridinyl)-7-(2-fluorophenyl)-4-((2S)-2-methyl-4-(2-propenoyl)-1-piperazinyl)pyrido[2,3-d]pyrimidin-2(1H)-one] |  | 493 | 169 | 
10 | C=CC(=O)N1CCN(c2nc(=O)n(-c3c(CC)ncnc3CC)c3nc(-c4ccccc4F)c(Cl)cc23)[C@@H](C)C1 [Example 47, 6-Chloro-1-(4,6-diethyl-5-pyrimidinyl)-7-(2-fluorophenyl)-4-((2S)-2-methyl-4-(2-propenoyl)-1-piperazinyl)pyrido[2,3-d]pyrimidin-2(1H)-one] |  | 409 |  | IC50 [3, 5]: 152 nM
11 | C=CC(=O)N1CCN(c2nc(=O)n(-c3ccccc3C(C)(C)C)c3nc(-c4c(O)cccc4F)c(Cl)cc23)[C@@H](C)C1 [Example 49, 6-Chloro-7-(2-fluoro-6-hydroxyphenyl)-1-(2-(2-methyl-2-propanyl)phenyl)-4-((2S)-2-methyl-4-(2-propenoyl)-1-piperazinyl)pyrido[2,3-d]pyrimidin-2(1H)-one] |  | 177 | 154 | 
12 | C=CC(=O)N1CCN(c2nc(=O)n(-c3ccccc3C(C)C)c3nc(-c4ccccc4F)c(C)nc23)[C@@H](C)C1 [Example 51, 7-(2-Fluorophenyl)-6-methyl-4-((2A)-2-methyl-4-(2-propenoyl)-1-piperazinyl)-1-(2-(2-propanyl)phenyl)-2(1H)-pteridinone] |  | 538 | 440 | 
13 | C=CC(=O)N1CCN(c2nc(=O)n(-c3c(C)cnn3C(C)C)c3nc(-c4ccccc4F)c(Cl)cc23)[C@@H](C)C1 [Example 53, 6-Chloro-7-(2-fluorophenyl)-1-(4-methyl-1-(2-propanyl)-1H-pyrazol-5-yl)-4-((2S)-2-methyl-4-(2-propenoyl)-1-piperazinyl)pyrido[2,3-d]pyrimidin-2(1H)-one] |  | 125 | 71 | 

The next lines start with results.

Row | Coupled exchange IC50 [2] [nM] | IC50 [4] [nM] | IC50 ([3]; MIA PaCa-2 cells) [nM] | Structure (SMILES) | also measured
14 | >250000 |  |  | C=CC(=O)N1CCN(c2snc3nc(-c4cc(OC)cc5ccccc45)c(Cl)cc23)C(C)C1 (racemic) [Example 2-4, 1-(4-(5-chloro-6-(3-methoxy-1-naphthalenyl)[1,2]thiazolo[3,4-b]pyridin-3-yl)-3-methyl-1-piperazinyl)-2-propen-1-one] | 
15 | 760 |  |  | C=C(CBr)C(=O)N1CCN(c2snc3c(F)c(-c4cc(O)cc5ccccc45)c(Cl)cc23)CC1 (single isomer, unassigned) [Example 18-2, 2-(bromomethyl)-1-(4-(5-chloro-7-fluoro-6-(3-hydroxy-1-naphthalenyl)-2,1-benzothiazol-3-yl)-1-piperazinyl)-2-propen-1-one] | 
16 | 24600 |  |  | C=C(CO)C(=O)N1CCN(c2snc3c(F)c(-c4cc(O)cc5ccccc45)c(Cl)cc23)CC1 (single isomer, unassigned) [Example 18-3, 1-(4-(5-chloro-7-fluoro-6-(3-hydroxy-1-naphthalenyl)-2,1-benzothiazol-3-yl)-1-piperazinyl)-2-(hydroxymethyl)-2-propen-1-one] | 
17 | 283 |  |  | C=CC(=O)N1CCN(c2nc(=O)n(-c3ccccc3C(C)C)c3cc(-c4c(O)cccc4F)c(Cl)cc23)[C@@H](C)C1 [Example 8-3, 6-chloro-7-(2-fluoro-6-hydroxyphenyl)-4-((2S)-2-methyl-4-(2-propenoyl)-1-piperazinyl)-1-(2-(2-propanyl)phenyl)-2(1H)-quinazolinone] | 
18 |  | 33 | 25 | C=CC(=O)N1CCN(c2nc(=O)n(-c3c(C)ccnc3C3CC3)c3nc(-c4c(O)cccc4F)c(Cl)cc23)[C@@H](C)C1 [Example 44-1] | 
19 |  | 208 | 138 | C=CC(=O)N1CCN(c2nc(=O)n(-c3c(C)ccnc3C3CC3)c3nc(-c4c(O)cccc4F)c(Cl)cc23)[C@@H](C)C1 [Example 44-2] | 
20 |  | 170 | 126 | C=CC(=O)N1CCN(c2nc(=O)n(-c3c(C)ccnc3CC)c3nc(-c4ccccc4F)c(Cl)cc23)[C@@H](C)C1 [Example 46-1, 6-chloro-1-(2-ethyl-4-methyl-3-pyridinyl)-7-(2-fluorophenyl)-4-((2S)-2-methyl-4-(2-propenoyl)-1-piperazinyl)pyrido-[2,3-d]pyrimidin-2(1H)-one] | 
21 |  | 971 | 552 | C=CC(=O)N1CCN(c2nc(=O)n(-c3c(C)ccnc3CC)c3nc(-c4ccccc4F)c(Cl)cc23)[C@@H](C)C1 [Example 46-2, 6-chloro-1-(2-ethyl-4-methyl-3-pyridinyl)-7-(2-fluorophenyl)-4-((2S)-2-methyl-4-(2-propenoyl)-1-piperazinyl)pyrido-[2,3-d]pyrimidin-2(1H)-one] | 
